Assays:
A2780cis = experiment: In vitro cytotoxicity, MTT assay; assay type: cell-based, human; conditions: for IC50: A2780cis, MTT assay, 72 h incubation; for Resistance found in A2780cis: IC50 of A2780cis cells / IC50 of A2780 cells; for Toxicity toward cancer cells compared to that toward CCD-19Lu cells, A2780cis: IC50 of CCD-19Lu cells / IC50 of A2780cis; for Toxicity toward cancer cells compared to that toward NCM460 cells, A2780cis: IC50 of NCM460 cells / IC50 of A2780cis
Description: (§1) In vitro cytotoxicity assays. HeLa, NCI-H460, HCT116, A2780, A2780cis and
(§2) cells), respectively, were seeded in 96-well plates for 24 h. The cells were then treated with a serial concentration of gold(III) complexes and incubated at 37 °C under a 5% CO2 atmosphere for 72 h. For nanostructures of 1, 2 and NC1, they were dissolved in
(§3) cisplatin were dissolved in culture medium-DMSO solution mixture (99:1, v/v).
(§4) After incubation for 72 h, MTT in PBS solution (5 mg/mL, 10 μL) was added to each well. The plates were incubated at 37 °C under a 5% CO2 atmosphere for another 4 h, and the cells were lysed by the addition of SDS solution (10%, w/w) with 0.01 M HCl (100 μL). After incubation in dark at 37 °C overnight, the cell viability after treatment was determined by a microtitre plate reader monitoring at the absorbance at 590 nm,

A2780adr = experiment: In vitro cytotoxicity, MTT assay; assay type: cell-based, human; conditions: for IC50: A2780adr, MTT assay, 72 h incubation, read-out: IC50; for Resistance found in A2780adr: IC50 of A2780adr cells / IC50 of A2780 cells; for Toxicity toward cancer cells compared to that toward CCD-19Lu cells, A2780adr: IC50 of CCD-19Lu cells / IC50 of A2780adr; for Toxicity toward cancer cells compared to that toward MIHA cells, A2780adr: IC50 of MIHA cells / IC50 of A2780adr; for Toxicity toward cancer cells compared to that toward NCM460 cells, A2780adr: IC50 of NCM460 cells / IC50 of A2780adr
Description: as §1, §2, §3, §4

MIHA = experiment: In vitro cytotoxicity, MTT assay; assay type: cell-based; conditions: MTT assay, 72 h incubation, read-out: IC50
Description: as §1, §2, §3, §4

NCM460 = experiment: In vitro cytotoxicity, MTT assay; assay type: cell-based, human; conditions: 72 h incubation
Description: as §1, §2, §3, §4

HeLa = experiment: In vitro cytotoxicity, MTT assay; assay type: cell-based, human; conditions: for IC50: HeLa, MTT assay, 72 h incubation, read-out: IC50; for Toxicity toward cancer cells compared to that toward CCD-19Lu cells, HeLa: IC50 of CCD-19Lu cells / IC50 of HeLa; for Toxicity toward cancer cells compared to that toward MIHA cells, HeLa: IC50 of MIHA cells / IC50 of HeLa; for Toxicity toward cancer cells compared to that toward NCM460 cells, HeLa: IC50 of NCM460 cells / IC50 of HeLa
Description: as §1, §2, §3, §4

CCD-19Lu = experiment: In vitro cytotoxicity, MTT assay; assay type: cell-based, human; conditions: 72 h incubation
Description: as §1, §2, §3, §4

NCI-H460 = experiment: In vitro cytotoxicity, MTT assay; assay type: cell-based, human; conditions: for Toxicity toward cancer cells compared to that toward CCD-19Lu cells, NCI-H460: IC50 of CCD-19Lu cells / IC50 of NCI-H460; for Toxicity toward cancer cells compared to that toward MIHA cells, NCI-H460: IC50 of MIHA cells / IC50 of NCI-H460; for Toxicity toward cancer cells compared to that toward NCM460 cells, NCI-H460: IC50 of NCM460 cells / IC50 of NCI-H460; for IC50: NCI-H460, MTT assay, 72 h incubation
Description: as §1, §2, §3, §4

HCT116 = experiment: In vitro cytotoxicity, MTT assay; assay type: cell-based, human; conditions: for IC50: HCT116, MTT assay, 72 h incubation; for Toxicity toward cancer cells compared to that toward CCD-19Lu cells, HCT-116: IC50 of CCD-19Lu cells / IC50 of HCT-116; for Toxicity toward cancer cells compared to that toward MIHA cells, HCT-116: IC50 of MIHA cells / IC50 of HCT-116; for Toxicity toward cancer cells compared to that toward NCM460 cells, HCT-116: IC50 of NCM460 cells / IC50 of HCT-116
Description: as §1, §2, §3, §4

A2780 = experiment: In vitro cytotoxicity, MTT assay; assay type: cell-based, human; conditions: for IC50: A2780, MTT assay, 72 h incubation; for Toxicity toward cancer cells compared to that toward CCD-19Lu cells, A2780: IC50 of CCD-19Lu cells / IC50 of A2780; for Toxicity toward cancer cells compared to that toward MIHA cells, A2780: IC50 of MIHA cells / IC50 of A2780; for Toxicity toward cancer cells compared to that toward NCM460 cells, A2780: IC50 of NCM460 cells / IC50 of A2780
Description: as §1, §2, §3, §4

HCT116 cells = experiment: Hydrolysis in live cells, UPLC-QTOF-MS of cell lysates; assay type: in vitro ADME, human; conditions: 2 μM, 24 h
Description: Hydrolysis of the gold(III) complexes in live cells was examined by ultra-performance liquid chromatography coupled quadrupole-time-of-flight mass spectrometry (UPLC-QTOF-MS). Colon cancer cells (HCT116) were treated with 1, 2 and 3 (2 μM) for 24 h, harvested and lysed in an acetonitrile–water solution mixture (3 : 1, v/v) prior to UPLC-QTOF-MS analysis. […] Therefore, the peak is attributable to the major metabolite of 1 formed in HCT116 cells. […] This should be attributable to the higher stability of the amide bond versus the ester bond in vitro. […]
which reflected the amount of blue formazan formed. IC50 values were then determined by CompuSyn S6 from three independent measurements.
Study on the release of hydrolyzed product from 1 and 2 in aqueous buffer solutions by ICP-MS. The nanostructures of gold(III) complex was dissolved in PBS solution (pH 7.4; 1 mg/mL) or sodium acetate buffer solution (pH 4.0; 1 mg/mL) and was dialyzed against 1 L of the buffer solution at 37 °C using semipermeable minidialysis tubes (molecular weight cut-off = 1,000 Da; GE Healthcare). At a predetermined time, an aliquot of solution was removed and dissolved in HNO3/HCl solution mixture (9:1, v/v; volume of aliquot: volume of acid mixture = 1:3). The solution mixture was heated at 65 °C with shaking overnight, and the gold content was determined by ICP-MS from three independent aliquots.
Study on the hydrolysis of 1 and 2 in aqueous buffer solutions by 1H NMR. […]
The flow rate was 0.4 mL/min and the injection volume was 2 µL. The UPLC-QTOF-MS chromatograms of 1, 3, 4 and solvent control in acetonitrile were also recorded for the interpretation of UPLC-QTOF-MS chromatograms of the cell lysate. […]
Au1a (2 µM; with 1 vol% DMSO). […] An aliquot of the cell suspension was subjected to Bio-rad protein assay with a microtitre plate reader at the absorbance at 595 nm, using bovine serum albumin as the protein standard. […] The solution mixture was heated at 65 °C with shaking overnight, and the gold content was determined by ICP-MS. […]

Molecule	IC50 (A2780cis)	Resistance found in A2780cis (A2780cis)	Toxicity toward cancer cells compared to that toward NCM460 cells, A2780cis (A2780cis)	IC50 (A2780adr)	Resistance found in A2780adr (A2780adr)	Toxicity toward cancer cells compared to that toward MIHA cells, A2780adr (A2780adr)	Toxicity toward cancer cells compared to that toward NCM460 cells, A2780adr (A2780adr)	IC50 (MIHA)	IC50 (NCM460)	IC50 (HeLa)	Toxicity toward cancer cells compared to that toward MIHA cells, HeLa (HeLa)	Toxicity toward cancer cells compared to that toward NCM460 cells, HeLa (HeLa)	IC50 (CCD-19Lu)	Toxicity toward cancer cells compared to that toward MIHA cells, NCI-H460 (NCI-H460)	Toxicity toward cancer cells compared to that toward NCM460 cells, NCI-H460 (NCI-H460)	IC50 (NCI-H460)	IC50 (HCT116)	Toxicity toward cancer cells compared to that toward MIHA cells, HCT-116 (HCT116)	Toxicity toward cancer cells compared to that toward NCM460 cells, HCT-116 (HCT116)	IC50 (A2780)	also measured
C1=Cc2nc1c(-c1ccccc1)c1ccc([n-]1)c(-c1ccccc1)c1nc(c(-c3ccccc3)c3ccc([n-]3)c2-c2ccccc2)C=C1.[Au+3].[Cl-] [Au1a, [Au(TPP)]Cl, reference compound]	0.18 ± 0.01 µM	1.49	0.4	1.13 ± 0.15 µM	9.09	0.4	0.06	0.4 ± 0.07 µM	0.07 ± 0.01 µM	0.66 ± 0.04 µM	0.6	0.1	0.23 ± 0.04 µM	1.7	0.3	0.23 ± 0.01 µM	0.09 ± 0.02 µM	4.4	0.8	0.12 ± 0.02 µM	Toxicity toward cancer cells compared to that toward CCD-19Lu cells, A2780cis (A2780cis): 1.3; Toxicity toward cancer cells compared to that toward CCD-19Lu cells, A2780adr (A2780adr): 0.2; Toxicity toward cancer cells compared to that toward CCD-19Lu cells, HeLa (HeLa): 0.3; Toxicity toward cancer cells compared to that toward CCD-19Lu cells, NCI-H460 (NCI-H460): 1.0; Toxicity toward cancer cells compared to that toward CCD-19Lu cells, HCT-116 (HCT116): 2.6; Toxicity toward cancer cells compared to that toward CCD-19Lu cells, A2780 (A2780): 1.9; Toxicity toward cancer cells compared to that toward MIHA cells, A2780 (A2780): 3.3; Toxicity toward cancer cells compared to that toward NCM460 cells, A2780 (A2780): 0.6
COC(=O)c1ccc(C2=C3C=CC(=N3)C(c3ccccc3)=c3ccc4[n]3[Au+][n]3c(ccc32)C(c2ccccc2)=C2C=CC(=N2)C=4c2ccccc2)cc1.[Cl-] [Compound 3, [Au(TPP–COOCH3)]^+]	0.19 ± 0.03 µM	1.0	0.7	0.65 ± 0.06 µM	3.23	1.1	0.2	0.74 ± 0.09 µM	0.13 ± 0.01 µM	0.82 ± 0.12 µM	0.9	0.2	0.73 ± 0.04 µM	7.0	1.3	0.11 ± 0.01 µM	0.09 ± 0.01 µM	7.7	1.4	0.23 ± 0.02 µM	Toxicity toward cancer cells compared to that toward CCD-19Lu cells, A2780cis (A2780cis): 3.8; Toxicity toward cancer cells compared to that toward CCD-19Lu cells, A2780adr (A2780adr): 1.1; Toxicity toward cancer cells compared to that toward CCD-19Lu cells, HeLa (HeLa): 0.9; Toxicity toward cancer cells compared to that toward CCD-19Lu cells, NCI-H460 (NCI-H460): 6.6; Toxicity toward cancer cells compared to that toward CCD-19Lu cells, HCT-116 (HCT116): 8.1; Toxicity toward cancer cells compared to that toward CCD-19Lu cells, A2780 (A2780): 3.2; Toxicity toward cancer cells compared to that toward NCM460 cells, A2780 (A2780): 0.7; hydrolysis / release of [Au(TPP–COOH)]+ in cells (HCT116 cells): hydrolysis of the ester bond was also observed
[Au(TPP–CONH–PEG5000–OCH3)]Cl [Compound 2]	47.2 ± 8.62 µM	3.57	1.5	> 120 µM	> 9.09	< 1.0	< 0.6	115 ± 17.1 µM	71 ± 6.42 µM	46.5 ± 4.4 µM	2.5	1.5	> 100 µM	4.7	2.9	24.7 ± 4.62 µM	8.24 ± 0.22 µM	14.0	8.6	13.4 ± 0.18 µM	Toxicity toward cancer cells compared to that toward MIHA cells, A2780cis (A2780cis; IC50 of MIHA cells / IC50 of A2780cis): 2.4; Toxicity toward cancer cells compared to that toward MIHA cells, A2780 (A2780): 8.6; Toxicity toward cancer cells compared to that toward NCM460 cells, A2780 (A2780): 5.3; hydrolysis / release of [Au(TPP–COOH)]+ in cells (HCT116 cells): no release of [Au(TPP–COOH)]^+ can be found

Reference: publication PMC5384453, “A multi-functional PEGylated gold(III) compound: potent anti-cancer properties and self-assembly into nanostructures for drug co-delivery” (Chemical Science, 2016)
